Here are results for 33 compounds from patent publication US20260216294A1, “BETA 2-ADRENERGIC RECEPTOR AGONISTS FOR TREATMENT OR PREVENTION OF MUSCLE WASTING” (ATROGI AB, priority 2023, published 2026).

Assay [1] concerns L6-myotubes. As to the kind of experiment: Glucose uptake in differentiated L6-myotubes (Biological Example 2). Format: cell-based. Particulars: for Emax at 10 µM: read-out: Biological example 2 (GU). An outline of the steps: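 Uptake was quantified as radioactivity in 0.2 M NaOH lysates after a 10 min pulse of 50 nM ^3H-2-deoxyglucose. The pulse followed two agonist exposures at 1×10^−5 M final (isoprenaline or test compound): 1 h 40 min, then 20 min in glucose-free medium after washing. L6 myotubes had been starved overnight in medium with 0.5% fatty-acid-free BSA.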

For assay [2], the system named is L6-myotubes. As to the kind of experiment: Measurement of intracellular cAMP levels in differentiated L6-myotubes (Biological Example 3). It is filed as cell-based. Particulars: for Emax at 10 µM: 0.25 h. An outline of the steps: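 Intracellular cAMP quantified by AlphaScreen after ethanol extraction and lysis of L6 myotubes. Cells were serum-starved overnight, then exposed for 15 min to compound (final 1×10^−5 M) or isoprenaline in IBMX-containing (1 mM) HBSS buffer, pH 7.4.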

[3] abbreviates: glucose uptake in differentiated L6-myotubes, compound at 10 μM, activity relative to isoproterenol at 10 μM.
The mark [4] stands for this setting: intracellular cAMP in differentiated L6-myotubes, compound at 10 μM, activity relative to isoproterenol at 10 μM.
Where [5] appears, read: glucose uptake, compound at 10 μM relative to isoproterenol at 10 μM.
Where [6] appears, read: intracellular cAMP, compound at 10 μM relative to isoproterenol at 10 μM.

`CC(C)(C[C@H]1CC[C@@H](NC(=O)OC(C)(C)C)CC1)NC[C@H](O)c1cncc(F)c1` [Compound 469, (1S,4s)-4-{2-[(R)-2-(5-fluoro-3-pyridyl)-2-hydroxyethylamino]-2-methylpropyl}cyclohexy-2-methyl-2-propanecarbamate]: the “Biological example 2 (GU)” value in assay [1] (setting [3]) was “+++ (If a compound at 10 μM shows activity of more than 75% of that of isoproterenol at 10 μM, the activity is denoted with +++)”. Besides, the “Biological example 3 (CAMP)” value in assay [2] (setting [4]) was “− (if it less than 25% it is denoted with −)”.
`CC12CC(C1)[C@H]([C@H](O)c1cccc(Cl)c1)N2` [Compound 206]: the Emax at 10 µM in assay [1] (setting [3]) is > 75%; in assay [2] (setting [4]) it was < 25%.
Taken in the same sequence, the figures for `CC(C)(C[C@H]1CC[C@@H](C(=O)O)CC1)NC[C@H](O)c1cccc(F)c1` [Compound 331, (1S,4s)-4-{2-[(R)-2-(m-fluorophenyl)-2-hydroxyethylamino]-2-methylpropyl} cyclohexanecarboxylic acid] were 25 to 50% and < 25%.
Taken in the same sequence, the figures for `COc1ccc(C[C@@H]2CC[C@H]([C@H](O)c3cncc(F)c3)N2)cc1` [Compound 378, (R)-{(2R,5S)-5-[(p-methoxyphenyl)methyl]-2-pyrrolidinyl}(5-fluoro-3-pyridyl)methanol] were > 75% and < 25%.
On the same counts, the results for `COC(=O)[C@H]1CC[C@@H](CC(C)(C)NC[C@H](O)c2cccc(F)c2)CC1` [Compound 327, methyl (1S,4s)-4-{2-[(R)-2-(m-fluorophenyl)-2-hydroxyethylamino]-2-methylpropyl} cyclohexanecarboxylate] are > 75% and < 25%.
`CC1(C)C[C@@H]([C@@H](O)c2cccc(Cl)c2)N1` [Compound 231]: the figures for the Emax at 10 µM in assay [1] (setting [3]) and in assay [2] (setting [4]) were 25 to 50% and < 25%, respectively.
In the case of `CC1(C)CC[C@H]([C@H](O)c2cncc(O)c2)N1` [Compound 167, 5-{(R)-[(R)-5,5-dimethyl-2-pyrrolidinyl] hydroxymethyl}-3-pyridinol], the Emax at 10 µM in assay [1] (setting [5]) is 50 to 75%; in assay [2] (setting [6]) it was < 25%.
On to `CCCCNC[C@H](O)c1csc(C(F)(F)F)n1` [Compound 72, (S)-2-(butylamino)-1-[2-(trifluoromethyl)-1,3-thiazol-4-yl]-1-ethanol], for which the Emax at 10 µM in assay [1] (setting [5]) was 25 to 50%; in assay [2] (setting [6]), < 25%.
For the compound `CCC[C@@H]1CC[C@@H]([C@@H](O)c2cccc(F)c2)N1` [Compound 133, (S)-[(2,5R)-5-propyl-2-pyrrolidinyl](m-fluorophenyl)methanol], the Emax at 10 µM in assay [1] (setting [5]) was 50 to 75%; in assay [2] (setting [6]), < 25%.
For the compound `O[C@H](c1cncc(F)c1)C12CCC(COCc3ccc(OC(F)(F)F)cc3)(CC1)N2` [Compound 490], the values for the Emax at 10 µM in assay [1] (setting [3]) and in assay [2] (setting [4]) were 50 to 75% and < 25%, respectively.
As for `CC(C)(C)NC[C@H](O)c1ccncc1F` [Compound 108, (R)-2-(tert-butylamino)-1-(3-fluoro-4-pyridyl)-1-ethanol], the Emax at 10 µM is 25 to 50% in assay [1] (setting [5]) and < 25% in assay [2] (setting [6]).
As for `CO[C@H]1CC[C@@H](C(C)(C)NC[C@H](O)c2cccc(F)c2)CC1` [Compound 251, (R)-1-(m-fluorophenyl)-2-{1-methyl-1-[(1s,4S)-4-methoxycyclohexyl]ethylamino}-1-ethanol], the Emax at 10 µM in assay [1] (setting [3]) and in assay [2] (setting [4]) was < 25% throughout.
`CN(C)S(=O)(=O)[C@H]1CC[C@@H](CC(C)(C)NC[C@H](O)c2cccc(F)c2)CC1` [Compound 470]: the Emax at 10 µM in assay [1] (setting [3]) was > 75%; in assay [2] (setting [4]), 25 to 50%.
Consider `CC1(C)CCC[C@@H]([C@@H](O)c2ccccc2F)N1` [Compound 192, (S)-[(S)-6,6-dimethyl-2-piperidyl](o-fluorophenyl)methanol], for which the Emax at 10 µM in assay [1] (setting [5]) was 25 to 50%; in assay [2] (setting [6]), < 25%.
`CC(=O)N[C@H]1CC[C@@H](C[C@@H]2CC[C@H]([C@H](O)c3cccc(F)c3)N2)CC1` [Compound 484]: the values for the Emax at 10 µM in assay [1] (setting [3]) and in assay [2] (setting [4]) were 50 to 75% and < 25%, respectively.
With `O[C@H](c1cccc(F)c1)[C@H]1CCC2(CCCC2)N1` [Compound 168], the Emax at 10 µM in assay [1] (setting [5]) fell in the range of 50 to 75%; in assay [2] (setting [6]) it was 25 to 50%.
Consider `O[C@@H](c1cccc(F)c1)C12CCC(CCc3cccnc3)(CC1)N2` [Compound 446, (R)-(m-fluorophenyl){4-[2-(3-pyridyl)ethyl]-7-azabicyclo[[2.2.1]]hept-1-yl}methanol], for which the “Biological example 2 (GU)” value in assay [1] (setting [3]) is given as “+++ (If a compound at 10 μM shows activity of more than 75% of that of isoproterenol at 10 μM, the activity is denoted with +++)”. Besides, in assay [2] (setting [4]), the “Biological example 3 (CAMP)” value was “++ (if it is between 75 and 50% it is denoted with ++)”.
Consider `CC(C)(C)NCC(O)c1ccc(O)cc1` (stereo not drawn) [Compound 4, 2-(tert-butylamino)-1-(p-hydroxyphenyl)-1-ethanol], for which the values for the Emax at 10 µM in assay [1] (setting [5]) and in assay [2] (setting [6]) were > 75% and 25 to 50%, respectively.
With `O[C@@H](c1cccc(F)c1)C12CCC(CCc3ccc(Cl)cc3)(CC1)N2` [Compound 527, (S)-{4-[2-(p-chlorophenyl)ethyl]-7-azabicyclo[[2.2.1]]hept-1-yl}(m-fluorophenyl)methanol], the Emax at 10 µM in assay [1] (setting [3]) and in assay [2] (setting [4]) was < 25% in each case.
For the compound `CCCCNCC(O)c1ccc(F)c(F)c1` (stereo not drawn) [Compound 56, 2-(butylamino)-1-(3,4-difluorophenyl)-1-ethanol], the Emax at 10 µM in assay [1] (setting [5]) is 50 to 75%; in assay [2] (setting [6]), < 25%.
In the case of `CC12CCC([C@@H](O)c3cncc(F)c3)(CC1)N2` [Compound 184, (S)-(5-fluoro-3-pyridyl)(4-methyl-7-azabicyclo[[2.2.1]]hept-1-yl)methanol], the results for the Emax at 10 µM in assay [1] (setting [5]) and in assay [2] (setting [6]) were 50 to 75% and < 25%, respectively.
`CC(C)(CC[C@H]1CC[C@H](O)CC1)NC[C@H](O)c1cncc(F)c1` [Compound 289, (R)-2-{1,1-dimethyl-3-[(1r,4S)-4-hydroxycyclohexyl]propylamino}-1-(5-fluoro-3-pyridyl)-1-ethanol]: the Emax at 10 µM in assay [1] (setting [3]) was 25 to 50%; in assay [2] (setting [4]), < 25%.
As to `COC(=O)[C@H]1CC[C@@H](CCC(C)(C)NC[C@H](O)c2cccc(F)c2)CC1` [Compound 351, methyl (1S,4s)-4-{3-[(R)-2-(m-fluorophenyl)-2-hydroxyethylamino]-3-methylbutyl} cyclohexanecarboxylate], the Emax at 10 µM in assay [1] (setting [3]) is > 75%; in assay [2] (setting [4]), 25 to 50%.
As to `CC(C)(NC[C@H](O)c1cncc(F)c1)[C@H]1CC[C@H](OCc2ccccc2)CC1` [Compound 281, (R)-1-(5-fluoro-3-pyridyl)-2-{1-methyl-1-[(1r,4R)-4-(benzyloxy)cyclohexyl]ethylamino}-1-ethanol], the Emax at 10 µM in assay [1] (setting [3]) was 50 to 75%; in assay [2] (setting [4]), < 25%.
On to `Oc1ccc(C(O)CNCCC2CCCCC2)cc1` (stereo not drawn) [Compound 16, 2-(2-cyclohexylethylamino)-1-(p-hydroxyphenyl)-1-ethanol], for which the results for the Emax at 10 µM in assay [1] (setting [5]) and in assay [2] (setting [6]) were 25 to 50% and < 25%, respectively.
With `O[C@@H](c1cccc(F)c1)[C@H]1CC[C@H](Cc2ccc(Cl)cc2)N1` [Compound 394, (S)-{(2R,5R)-5-[(p-chlorophenyl)methyl]-2-pyrrolidinyl}(m-fluorophenyl)methanol], the values for the Emax at 10 µM in assay [1] (setting [3]) and in assay [2] (setting [4]) were 50 to 75% and < 25%, respectively.
As for `CC12CC(C1)[C@H]([C@H](O)c1cccc(F)c1)N2` [Compound 186], the Emax at 10 µM is > 75% in assay [1] (setting [5]) and 50 to 75% in assay [2] (setting [6]).
`CCC[C@@H]1CC[C@H]([C@H](O)c2cccc(Cl)c2)N1` [Compound 141, (R)-[(2R,5R)-5-propyl-2-pyrrolidinyl](m-chlorophenyl)methanol]: the Emax at 10 µM in assay [1] (setting [5]) is 50 to 75%; in assay [2] (setting [6]) it was < 25%.
Regarding `O[C@@H](c1cccc(F)c1)C12CCC(CCc3cccnc3)(CC1)N2` [Compound 445, (S)-(m-fluorophenyl){4-[2-(3-pyridyl)ethyl]-7-azabicyclo[[2.2.1]]hept-1-yl}methanol], the Emax at 10 µM in assay [1] (setting [3]) is > 75%. In addition, the “Biological example 3 (CAMP)” value in assay [2] (setting [4]) is on record as “− (if it less than 25% it is denoted with −)”.
Consider `C[C@H]1CC[C@@H]([C@@H](O)c2cccc(O)c2)N1` (racemic) [Compound 41, Racemic mixture of m-{(R)-[(2R,5R)-5-methyl-2-pyrrolidinyl] hydroxymethyl}phenol and m-{(S)-[(2S,5S)-5-methyl-2-pyrrolidinyl] hydroxymethyl}phenol], for which the Emax at 10 µM is > 75% in assay [1] (setting [5]) and < 25% in assay [2] (setting [6]).
As for `CC(=O)N(Cc1ccccc1)[C@H]1CC[C@H](C[C@@H]2CC[C@H]([C@@H](O)c3cccc(F)c3)N2)CC1` [Compound 481, N-[(1S,4r)-4-({(2S,5R)-5-[(S)-(m-fluorophenyl) hydroxymethyl]-2-pyrrolidinyl}methyl)cyclohexyl]-N-benzylacetamide], the Emax at 10 µM in assay [1] (setting [3]) and in assay [2] (setting [4]) was < 25% in each case.
As for `CCC[C@H]1CCC[C@@H]([C@H](O)c2cccc(F)c2)N1` [Compound 120], the Emax at 10 µM in assay [1] (setting [5]) is 50 to 75%; in assay [2] (setting [6]) it was < 25%.
`CCC[C@@H](C)NC[C@H](O)c1cccc(F)c1` [Compound 50, (R)-2-[(R)-1-methylbutylamino]-1-(m-fluorophenyl)-1-ethanol]: the Emax at 10 µM in assay [1] (setting [5]) is > 75%; in assay [2] (setting [6]) it was < 25%.
